According to the supplement of paper PMC11061612:

Columns and labels:
Test in all cases: Bliss excess, mean over the matrix (fraction); higher = more synergy
[1] = test system: 8305C (Thyroid Gland Carcinoma)
Procedure, shortened: (§1)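 Bliss excess equals the observed combination effect minus the expected value EA + EB − EA·EB, where EA and EB are the effects of each agent alone. Combination Emax is the second-highest inhibition within the matrix. Inhibition was scaled from CellTiter-Glo 2.0 luminescence, with 0 set by vehicle wells and 1 by blank wells, after 72 hours of two-drug dosing of cells plated in 1536-well plates.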

[2] = test system: CAL-51 (Breast Carcinoma)
Procedure, shortened: as §1

[3] = test system: CAL-54 (Kidney Carcinoma)
Procedure, shortened: as §1

[4] = test system: COLO-829 (Melanoma)
Procedure, shortened: as §1

[5] = test system: CTB-1 (B-Cell Non-Hodgkin's Lymphoma)
Procedure, shortened: as §1

[6] = test system: HMV-II (Melanoma)
Procedure, shortened: as §1

[7] = test system: KARPAS-231 (B-Cell Non-Hodgkin's Lymphoma)
Procedure, shortened: as §1

[8] = test system: KYSE-410 (Esophageal Squamous Cell Carcinoma)
Procedure, shortened: as §1

[9] = test system: LB771-HNC (Head and Neck Carcinoma)
Procedure, shortened: as §1

[10] = test system: LU-139 (Small Cell Lung Carcinoma)
Procedure, shortened: as §1

[11] = test system: MDA-MB-468 (Breast Carcinoma)
Procedure, shortened: as §1

[12] = test system: NCI-H28 (Mesothelioma)
Procedure, shortened: as §1

[13] = test system: NCI-H747 (Colorectal Carcinoma)
Procedure, shortened: as §1

[14] = test system: OC-314 (Ovarian Carcinoma)
Procedure, shortened: as §1

[15] = test system: PCI-30 (Head and Neck Carcinoma)
Procedure, shortened: as §1

[16] = test system: RKO (Colorectal Carcinoma)
Procedure, shortened: as §1

[17] = test system: RT-112 (Bladder Carcinoma)
Procedure, shortened: as §1

[18] = test system: SUP-T1 (T-Lymphoblastic Leukemia)
Procedure, shortened: as §1

[19] = test system: SW1271 (Small Cell Lung Carcinoma)
Procedure, shortened: as §1

[20] = test system: TE-4 (Esophageal Squamous Cell Carcinoma)
Procedure, shortened: as §1

Structure (SMILES)	Bliss excess [1]	Bliss excess [2]	Bliss excess [3]	Bliss excess [4]	Bliss excess [5]	Bliss excess [6]	Bliss excess [7]	Bliss excess [8]	Bliss excess [9]	Bliss excess [10]	Bliss excess [11]	Bliss excess [12]	Bliss excess [13]	Bliss excess [14]	Bliss excess [15]	Bliss excess [16]	Bliss excess [17]	Bliss excess [18]	Bliss excess [19]	Bliss excess [20]
COc1cccc(OCCCN)c1-c1cc(Nc2cnc(C#N)cn2)n[nH]1 [Prexasertib] + O=C(c1cc(Cc2n[nH]c(=O)c3ccccc23)ccc1F)N1CCN(C(=O)C2CC2)CC1 [Olaparib] (first compound max 1 µM, 7x7, partner max 10 µM)	-0.0732	-0.0744	-0.0942	-0.058	-0.0667	-0.0242	-0.0206	-0.0463	-0.0162	-0.0401	-0.106	-0.0613	0.0024	-0.0616	-0.166	-0.0165	-0.137	-0.0966	-0.0602	0.015
COc1cc2c(cc1OCCCCCOc1cc3c(cc1OC)C(=O)N1C=C(C)C[C@H]1C=N3)N=C[C@@H]1CC(C)=CN1C2=O [SG3199] + O=C(c1cc(Cc2n[nH]c(=O)c3ccccc23)ccc1F)N1CCN(C(=O)C2CC2)CC1 [Olaparib] (first compound max 0.001 µM, 7x7, partner max 10 µM)	-0.0854	-0.0299	-0.0488	-0.0476	-0.043	-0.0524	0.0289	-0.0334	0.0002	-0.0196	-0.0971	-0.0556	-0.0269	-0.036	-0.0328	-0.0131	-0.0227	-0.0478	-0.0276	-0.0319
CCc1c2c(nc3ccc(O)cc13)-c1cc3c(c(=O)n1C2)COC(=O)[C@]3(O)CC [SN-38] + CN(C)CCCOc1ccc(-c2ccc3ncc4c(c3c2)n(C2CCOCC2)c(=O)n4C)cn1 [AZD0156] (first compound max 0.3 µM, 7x7, partner max 1 µM)	0.0088	0.0611	0.005	-0.0257	-0.0393	-0.0108	0.0202	-0.0542	-0.031	-0.118	0.0309	-0.0839	0.0019	0.0872	-0.0044	0.0263	0.0988	-0.0214	0.0025	0.0185
CCc1c2c(nc3ccc(O)cc13)-c1cc3c(c(=O)n1C2)COC(=O)[C@]3(O)CC [SN-38] + O=C(c1cc(Cc2n[nH]c(=O)c3ccccc23)ccc1F)N1CCN(C(=O)C2CC2)CC1 [Olaparib] (first compound max 0.3 µM, 7x7, partner max 10 µM)	0.04	0.119	-0.0068	-0.0186	0.0546	0.0175	0.113	0.0014	-0.0181	0.0842	0.0941	0.0588	0.0512	0.117	0.0572	0.0223	0.116	0.0435	0.129	-0.0103
CC(=O)Nc1cccc(-n2c(=O)n(C3CC3)c(=O)c3c(Nc4ccc(I)cc4F)n(C)c(=O)c(C)c32)c1 [Trametinib] + Cc1nc(-c2cn3c(n2)-c2ccc(-c4cnn(C(C)(C)C(N)=O)c4)cc2OCC3)n(C(C)C)n1 [Taselisib] (first compound max 1 µM, 7x7, partner max 10 µM)	0.0656	0.0242	0.0303	0.234	0.0136	0.0405	-0.0605	0.168	0.125	-0.0203	-0.0919	0.0616	-0.0203	0.066	0.0485	0.219	0.106	0.0363	0.0896	0.0758
CC1(C)CCC(CN2CCN(c3ccc(C(=O)NS(=O)(=O)c4ccc(NCC5CCOCC5)c([N+](=O)[O-])c4)c(Oc4cnc5[nH]ccc5c4)c3)CC2)=C(c2ccc(Cl)cc2)C1 [Venetoclax] + C1CN(CCC1(C(=O)N[C@@H](CCO)C2=CC=C(C=C2)Cl)N)C3=NC=NC4=C3C=CN4 [Capivasertib] (first compound max 1 µM, 7x7, partner max 3 µM)	0.0038	-0.0879	-0.027	-0.045	-0.045	-0.0444	-0.182	-0.0427	-0.008	-0.0467	-0.0435	-0.0848	-0.0537	-0.0017	-0.0216	-0.0173	-0.0313	-0.0641	-0.105	-0.0421
CC1(C)CCC(CN2CCN(c3ccc(C(=O)NS(=O)(=O)c4ccc(NCC5CCOCC5)c([N+](=O)[O-])c4)c(Oc4cnc5[nH]ccc5c4)c3)CC2)=C(c2ccc(Cl)cc2)C1 [Venetoclax] + C=CCn1c(=O)c2cnc(Nc3ccc(N4CCN(C)CC4)cc3)nc2n1-c1cccc(C(C)(C)O)n1 [AZD1775] (first compound max 1 µM, partner max 1 µM)	-0.0431	-0.0507	-0.0099	-0.012	-0.0812	-0.0542	-0.047	-0.0451	0.0127	0.0207	-0.0308	-0.048	-0.0656	0.1	0.0974	0.0487	0.0891	0.0425	0.0381	-0.0529
